Biological target: human TYK2 (JH2domain-pseudokinase) (Homo sapiens (Human), UniProt P29597)
Experiment: TYK2 JH2 Domain Binding Assay (KINOMEscan, DiscoveRx)
Conditions: 11-point dilution, duplicate
Method: Binding constants for compounds of the present invention against the JH2 domain were determined by the following protocol for a KINOMEscan® assay (DiscoveRx). A fusion protein of a partial length construct of human TYK2 (JH2domain-pseudokinase) (amino acids G556 to D888 based on reference sequence NP_003322.3) and the DNA binding domain of NFkB was expressed in transiently transfected HEK293 cells. From these HEK 293 cells, extracts were prepared in M-PER extraction buffer (Pierce) in the presence of Protease Inhibitor Cocktail Complete (Roche) and Phosphatase Inhibitor Cocktail Set II (Merck) per manufacturers' instructions. The TYK2 (JH2domain-pseudokinase) fusion protein was labeled with a chimeric double-stranded DNA tag containing the NFkB binding site (5′-GGGAATTCCC-3′) fused to an amplicon for qPCR readout, which was added directly to the expression extract (the final concentration of DNA-tag in the binding reaction is 0.1 nM).
Streptavidin-coated magnetic beads (Dynal M280) were treated with a biotinylated small molecule ligand for 30 minutes at room temperature to generate affinity resins the binding assays. The liganded beads were blocked with excess biotin and washed with blocking buffer (SeaBlock (Pierce), 1% BSA, 0.05% Tween 20, 1 mM DTT) to remove unbound ligand and to reduce nonspecific binding.
The binding reaction was assembled by combining 16 μl of DNA-tagged kinase extract, 3.8 μl liganded affinity beads, and 0.18 μl test compound (PBS/0.05% Tween 20/10 mM DTT/0.1% BSA/2 μg/ml sonicated salmon sperm DNA)]. Extracts were used directly in binding assays without any enzyme purification steps at a ≥10,000-fold overall stock dilution (final DNA-tagged enzyme concentration <0.1 nM). Extracts were loaded with DNA-tag and diluted into the binding reaction in a two step process. First extracts were diluted 1:100 in 1× binding buffer (PBS/0.05% Tween 20/10 mM DTT/0.1% BSA/2 μg/ml sonicated salmon sperm DNA) containing 10 nM DNA-tag. This dilution was allowed to equilibrate at room temperature for 15 minutes and then subsequently diluted 1:100 in 1× binding buffer. Test compounds were prepared as 111× stocks in 100% DMSO. Kds were determined using an 11-point 3-fold compound dilution series with three DMSO control points. All compounds for Kd measurements are distributed by acoustic transfer (non-contact dispensing) in 100% DMSO. The compounds were then diluted directly into the assays such that the final concentration of DMSO was 0.9%. All reactions performed in polypropylene 384-well plates. Each was a final volume of 0.02 mL. Assays were incubated with shaking for 1 hour at room temperature. Then the beads were pelleted and washed with wash buffer (1×PBS, 0.05% Tween 20) to remove displaced kinase and test compound. The washed based were re-suspended in elution buffer (1×PBS, 0.05% Tween 20, 0.5 μM non-biotinylated affinity ligand) and incubated at room temperature with shaking for 30 minutes. The kinase concentration in the eluates was measured by qPCR. qPCR reactions were assembled by adding 2.5 μL of kinase eluate to 7.5 μL of qPCR master mix containing 0.15 μM amplicon primers and 0.15 μM amplicon probe. The qPCR protocol consisted of a 10 minute hot start at 95° C., followed by 35 cycles of 95° C. for 15 seconds, 60° C. for 1 minute.
Test compounds were prepared as 111× stocks in 100% DMSO. Kds were determined using an 11-point 3-fold compound dilution series with three DMSO control points. All compounds for Kd measurements are distributed by acoustic transfer (non-contact dispensing) in 100% DMSO. The compounds were then diluted directly into the assays such that the final concentration of DMSO was 0.9%. The Kds were determined using a compound top concentration of 30,000 nM. Kd measurements were performed in duplicate.
Binding constants (Kds) were calculated with a standard dose-response curve using the Hill equation: […]
The Hill Slope was set to −1. […]

Sequence of human TYK2 (JH2domain-pseudokinase) (P29597 556-888): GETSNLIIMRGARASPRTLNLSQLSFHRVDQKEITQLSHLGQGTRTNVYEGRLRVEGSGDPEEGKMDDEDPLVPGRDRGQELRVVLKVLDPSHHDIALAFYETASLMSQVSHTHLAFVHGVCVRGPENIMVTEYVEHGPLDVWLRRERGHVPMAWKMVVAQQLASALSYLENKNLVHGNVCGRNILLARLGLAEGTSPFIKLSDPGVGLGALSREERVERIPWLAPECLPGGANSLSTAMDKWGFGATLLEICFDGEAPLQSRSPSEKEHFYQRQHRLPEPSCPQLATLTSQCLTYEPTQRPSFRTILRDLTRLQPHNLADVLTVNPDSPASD

Structure (SMILES)	Kd [nM]
COc1c(Nc2cc(Nc3cnc(C)c(C#N)n3)nc3[nH]c(C(F)F)nc23)cccc1-c1nnn(C)n1 [I-38, 6-((2-(difluoromethyl)-7-((2-methoxy-3-(2-methyl-2H-tetrazol-5-yl)phenyl)amino)-3H-imidazo[4,5-b]pyridin-5-yl)amino)-3-methylpyrazine-2-carbonitrile]	1 to 10
COc1c(Nc2cc(Nc3ccc(N4CC[C@H](OC)C4)c(C#N)n3)nc3[nH]c(C(F)F)nc23)cccc1-c1nnn(C)n1 [I-39, (S)-6-((2-(difluoromethyl)-7-((2-methoxy-3-(2-methyl-2H-tetrazol-5-yl)phenyl)amino)-3H-imidazo[4,5-b]pyridin-5-yl)amino)-3-(3-methoxypyrrolidin-1-yl)picolinonitrile]	0.1 to 0.5
COc1c(Nc2cc(Nc3ccc(N4CCC4)c(C#N)n3)nc3[nH]c(C(F)F)nc23)cccc1-c1nnn(C)n1 [I-40, 3-(azetidin-1-yl)-6-((2-(difluoromethyl)-7-((2-methoxy-3-(2-methyl-2H-tetrazol-5-yl)phenyl)amino)-3H-imidazo[4,5-b]pyridin-5-yl)amino)picolinonitrile]	0.1 to 0.5
COc1c(Nc2cc(NC(=O)C3CC3)nc3[nH]c(C(F)F)nc23)cccc1-c1nc(C)nn1C [I-41, N-(2-(difluoromethyl)-7-((3-(1,3-dimethyl-1H-1,2,4-triazol-5-yl)-2-methoxyphenyl)amino)-3H-imidazo[4,5-b]pyridin-5-yl)cyclopropanecarboxamide]	> 10
COc1c(Nc2cc(Nc3ccc(C(C)C)c(C#N)n3)nc3[nH]c(C(F)F)nc23)cccc1-c1nnn(C)n1 [I-42, 6-((2-(difluoromethyl)-7-((2-methoxy-3-(2-methyl-2H-tetrazol-5-yl)phenyl)amino)-3H-imidazo[4,5-b]pyridin-5-yl)amino)-3-isopropylpicolinonitrile]	1 to 10
Cc1ccc(Nc2cc(Nc3ccccc3N(C)S(C)(=O)=O)c3nc(C(F)F)[nH]c3n2)nn1 [I-43, N-(2-((2-(difluoromethyl)-5-((6-methylpyridazin-3-yl)amino)-3H-imidazo[4,5-b]pyridin-7-yl)amino)phenyl)-N-methylmethanesulfonamide]	0.1 to 0.5
CN(c1ccccc1Nc1cc(Nc2cccc(C#N)n2)nc2[nH]c(C(F)F)nc12)S(C)(=O)=O [I-44, N-(2-((5-((6-cyanopyridin-2-yl)amino)-2-(difluoromethyl)-3H-imidazo[4,5-b]pyridin-7-yl)amino)phenyl)-N-methylmethanesulfonamide]	< 0.1
Cc1cc(Nc2cc(Nc3ccccc3N(C)S(C)(=O)=O)c3nc(C(F)F)[nH]c3n2)nc(C)n1 [I-45, N-(2-((2-(difluoromethyl)-5-((2,6-dimethylpyrimidin-4-yl)amino)-3H-imidazo[4,5-b]pyridin-7-yl)amino)phenyl)-N-methylmethanesulfonamide]	0.1 to 0.5
COc1c(Nc2cc(Nc3ccc(NCCCCl)c(C#N)n3)nc3[nH]c(C(F)F)nc23)cccc1-c1nnn(C)n1 [I-46, 3-((3-chloropropyl)amino)-6-((2-(difluoromethyl)-7-((2-methoxy-3-(2-methyl-2H-tetrazol-5-yl)phenyl)amino)-3H-imidazo[4,5-b]pyridin-5-yl)amino)picolinonitrile]	0.5 to 1
COc1c(Nc2cc(Nc3cnc(N4CCOCC4)c(C#N)n3)nc3[nH]c(C(F)F)nc23)cccc1-c1nnn(C)n1 [I-47, 6-((2-(difluoromethyl)-7-((2-methoxy-3-(2-methyl-2H-tetrazol-5-yl)phenyl)amino)-3H-imidazo[4,5-b]pyridin-5-yl)amino)-3-morpholinopyrazine-2-carbonitrile]	1 to 10
COc1c(Nc2cc(Nc3cnc(N4CC[C@@H](OC)C4)c(C#N)n3)nc3[nH]c(C(F)F)nc23)cccc1-c1nnn(C)n1 [I-48, (R)-6-((2-(difluoromethyl)-7-((2-methoxy-3-(2-methyl-2H-tetrazol-5-yl)phenyl)amino)-3H-imidazo[4,5-b]pyridin-5-yl)amino)-3-(3-methoxypyrrolidin-1-yl)pyrazine-2-carbonitrile]	1 to 10
COc1c(Nc2cc(Nc3ccc(C(C)(C)OC)c(C#N)n3)nc3[nH]c(C(F)F)nc23)cccc1-c1nnn(C)n1 [I-49, 6-((2-(difluoromethyl)-7-((2-methoxy-3-(2-methyl-2H-tetrazol-5-yl)phenyl)amino)-3H-imidazo[4,5-b]pyridin-5-yl)amino)-3-(2-methoxypropan-2-yl)picolinonitrile]	> 10
COC1CN(c2ccc(Nc3cc(NC(=O)C4CC4)nc4[nH]c(C(F)F)nc34)c(N(C)S(C)(=O)=O)c2)C1 [I-50, N-(2-(difluoromethyl)-7-((4-(3-methoxyazetidin-1-yl)-2-(N-methylmethylsulfonamido)phenyl)amino)-3H-imidazo[4,5-b]pyridin-5-yl)cyclopropanecarboxamide]	1 to 10
COc1c(Nc2cc(NC(=O)C3CC3)nc3[nH]c(C(F)F)nc23)cccc1-n1cnc(C)n1 [I-51, N-(2-(difluoromethyl)-7-((2-methoxy-3-(3-methyl-1H-1,2,4-triazol-1-yl)phenyl)amino)-3H-imidazo[4,5-b]pyridin-5-yl)cyclopropanecarboxamide]	> 10
COc1c(Nc2cc(NC(=O)C3CC3)nc3[nH]c(C(F)F)nc23)cccc1-c1nn(C)nc1C [I-53, N-(2-(difluoromethyl)-7-((3-(2,5-dimethyl-2H-1,2,3-triazol-4-yl)-2-methoxyphenyl)amino)-3H-imidazo[4,5-b]pyridin-5-yl)cyclopropanecarboxamide]	> 10
COc1c(Nc2cc(NC(=O)C3CC3)nc3[nH]c(C(F)F)nc23)cccc1-n1nc(C)nc1C [I-54, N-(2-(difluoromethyl)-7-((3-(3,5-dimethyl-1H-1,2,4-triazol-1-yl)-2-methoxyphenyl)amino)-3H-imidazo[4,5-b]pyridin-5-yl)cyclopropanecarboxamide]	> 10
COc1c(Nc2cc(NC(=O)C3CC3)nc3[nH]c(C(F)F)nc23)cccc1-n1ncnc1C [I-55, N-(2-(difluoromethyl)-7-((2-methoxy-3-(5-methyl-1H-1,2,4-triazol-1-yl)phenyl)amino)-3H-imidazo[4,5-b]pyridin-5-yl)cyclopropanecarboxamide]	> 10
COc1c(Nc2cc(Nc3cnc(C(C)(C)OC)c(C)n3)nc3[nH]c(C(F)F)nc23)cccc1-c1nnn(C)n1 [I-56, 2-(difluoromethyl)-N7-(2-methoxy-3-(2-methyl-2H-tetrazol-5-yl)phenyl)-N5-(5-(2-methoxypropan-2-yl)-6-methylpyrazin-2-yl)-3H-imidazo[4,5-b]pyridine-5,7-diamines]	1 to 10
CS(=O)(=O)c1cc(Cl)ccc1Nc1cc(NC(=O)C2CC2)nc2[nH]c(C(F)F)nc12 [I-58, N-(7-((4-chloro-2-(methylsulfonyl)phenyl)amino)-2-(difluoromethyl)-3H-imidazo[4,5-b]pyridin-5-yl)cyclopropanecarboxamide]	0.5 to 1
Cc1ncc(Nc2cc(Nc3ccccc3N(C)S(C)(=O)=O)c3nc(C(F)F)[nH]c3n2)nc1C [I-59, N-(2-((2-(difluoromethyl)-5-((5,6-dimethylpyrazin-2-yl)amino)-3H-imidazo[4,5-b]pyridin-7-yl)amino)phenyl)-N-methylmethanesulfonamide]	0.1 to 0.5
Cc1ccc(Nc2cc(Nc3ccccc3N(C)S(C)(=O)=O)c3nc(C(F)F)[nH]c3n2)nc1C#N [I-60, N-(2-((5-((6-cyano-5-methylpyridin-2-yl)amino)-2-(difluoromethyl)-3H-imidazo[4,5-b]pyridin-7-yl)amino)phenyl)-N-methylmethanesulfonamides]	< 0.1
